Reference: PMC3586729 (Nature Communications, 2013)

Target: T1, F. pringlei R884G mutant C3 PEPC (Flaveria pringlei, UniProt Q01647, R885G)
T1 sequence (Q01647 1-967 R885G): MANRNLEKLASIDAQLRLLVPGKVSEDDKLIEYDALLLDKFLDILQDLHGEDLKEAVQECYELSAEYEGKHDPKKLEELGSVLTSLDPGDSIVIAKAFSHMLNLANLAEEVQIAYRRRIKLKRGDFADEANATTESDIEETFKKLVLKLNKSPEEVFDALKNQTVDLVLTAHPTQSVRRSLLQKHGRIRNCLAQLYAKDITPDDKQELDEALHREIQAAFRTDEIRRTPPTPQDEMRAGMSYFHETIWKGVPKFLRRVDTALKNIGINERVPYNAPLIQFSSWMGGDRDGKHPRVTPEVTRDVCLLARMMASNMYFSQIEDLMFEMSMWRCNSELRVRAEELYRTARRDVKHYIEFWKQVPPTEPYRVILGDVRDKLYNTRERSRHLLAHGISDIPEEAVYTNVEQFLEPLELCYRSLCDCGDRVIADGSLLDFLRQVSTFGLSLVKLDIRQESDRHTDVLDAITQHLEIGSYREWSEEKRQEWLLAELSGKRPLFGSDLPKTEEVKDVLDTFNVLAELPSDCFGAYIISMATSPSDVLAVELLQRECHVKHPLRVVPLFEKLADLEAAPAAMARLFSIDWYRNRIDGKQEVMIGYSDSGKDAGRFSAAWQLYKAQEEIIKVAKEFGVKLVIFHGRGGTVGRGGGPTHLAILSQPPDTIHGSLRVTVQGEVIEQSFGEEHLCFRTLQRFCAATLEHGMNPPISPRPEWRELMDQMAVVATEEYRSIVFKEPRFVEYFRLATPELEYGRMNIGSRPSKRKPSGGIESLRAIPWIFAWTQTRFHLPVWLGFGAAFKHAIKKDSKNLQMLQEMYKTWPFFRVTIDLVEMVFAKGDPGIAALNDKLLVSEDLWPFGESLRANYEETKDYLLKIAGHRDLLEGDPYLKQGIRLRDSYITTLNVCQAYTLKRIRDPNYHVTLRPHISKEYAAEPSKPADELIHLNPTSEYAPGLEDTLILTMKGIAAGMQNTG
Assay type: biochemical
Settings: C3 PEPC R884G versus wild-type C3 PEPC from F. pringlei

In the case of O=C(O)CC(O)C(=O)O (stereo not shown) [malate], the “malate tolerance of the engineered enzyme increased by a factor” value is reported as ~ 3.
